Results as given in patent publication US7282592B2, “Resorcinol derivatives” (Warner-Lambert Company, priority 2000, dated 2007).

Biological target: T1, human tyrosinase (Homo sapiens, UniProt P14679)
T1 construct: endogenous in cells; host or cells: SKMEL 188 human melanoma cell line (lysate)
T1 sequence (P14679 19-529): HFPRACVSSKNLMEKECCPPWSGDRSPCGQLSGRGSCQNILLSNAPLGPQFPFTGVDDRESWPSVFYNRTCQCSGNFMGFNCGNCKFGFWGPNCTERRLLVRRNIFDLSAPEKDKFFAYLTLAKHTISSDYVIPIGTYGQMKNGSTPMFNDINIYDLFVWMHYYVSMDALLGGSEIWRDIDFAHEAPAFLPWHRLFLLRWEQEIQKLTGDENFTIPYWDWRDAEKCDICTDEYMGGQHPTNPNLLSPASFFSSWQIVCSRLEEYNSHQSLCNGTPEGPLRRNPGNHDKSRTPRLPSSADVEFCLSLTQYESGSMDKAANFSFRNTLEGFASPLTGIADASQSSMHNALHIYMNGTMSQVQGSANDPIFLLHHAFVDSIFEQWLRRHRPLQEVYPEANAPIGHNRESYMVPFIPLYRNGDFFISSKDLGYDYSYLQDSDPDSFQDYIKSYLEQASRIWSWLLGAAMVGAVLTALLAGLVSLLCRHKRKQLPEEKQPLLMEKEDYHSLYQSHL
Assay: Tyrosinase (DOPA Oxidase) Assay Using Cell Lysate
Format: biochemical
Conditions: SKMEL 188 human melanoma cell lysates, L-DOPA 100 μg/ml, incubated 8 hrs, read at 405 nm
Description: 1. Tyrosinase (DOPA Oxidase) Assay Using Cell Lysate
Human melanoma cell line, SKMEL 188 (licensed from Memorial Sloan-Kettering), is used in the cell lysate assay and the screen. In the assay, compounds and L-dihydroxyphenylalanine (L-DOPA) (100 μg/ml) are incubated with the cell lysates containing human tyrosinase for 8 hrs before the plates are read at 405 nm.

- IC50: ~4 µM
Compound: Cc1ccc(S(=O)(=O)N[C@H]2CC[C@H](c3ccc(O)cc3O)CC2)cc1 [Example 14, N-[trans-4-(2,4-Dihydroxyphenyl)cyclohexyl]-4-methylbenzenesulfonamide]
